{
  "source": "paper PMC5430962",
  "about": "“Retro-inverso Urokinase Receptor Antagonists for the Treatment of Metastatic Sarcomas” (Scientific Reports, 2017)",
  "key": {"[1]": {"test_system": "Sarc cells crossing HUVEC monolayer", "assay": "Trans-endothelial migration of Sarc cells, xCELLigence RTCA", "type": "cell-based, human", "conditions": "10 nM, EBM-10% FBS, slopes in a 25–35 hr time frame", "protocol": "Trans-endothelial migration assays were performed using the xCELLigence RTCA technology as described. Briefly, HUVECs (1 × 10^4 cells/well) suspended in growth medium, were seeded in E-plates and allowed to grow for ~25 hr, until they form a confluent monolayer, prior to seeding Sarc cells (1 × 10^4 cells/well) in growth medium plus/minus 10 nM RI-3. When HUVECs are challenged with crossing cells, there is a drop in electrical resistance that is monitored in real-time as cell index changes due to the rupture of the endothelial monolayer. The experiment was performed twice in quadruplicate."}, "HT1080 cells [2]": {"test_system": "HT1080 cells", "assay": "HT1080 cell migration toward 10% FBS in Boyden chambers", "type": "cell-based, human", "conditions": "10 nM peptide plus 10% FBS, 4 hr, means of three independent experiments in triplicate", "protocol": "Cell migration in Boyden chambers was carried out for 4 hr at 37 °C in humidified air with 5% CO2, as described. Briefly, cell suspension (1 × 10^5 viable cells/mL serum free medium) was seeded in each upper chamber. Lower chambers were filled with DMEM alone, DMEM containing RI peptides, 10 nM fMLF, or 10% FBS with/without RI peptides. The two compartments were separated by 8 μm pore size polycarbonate filters (Neuroprobe) coated with 2.5 µg/mL vitronectin (Corning). For the invasion assays, 8 μm pore size filters were coated with 50 μg/filter matrigel (BD Biosciences) as previously described[40] and cells (3 × 10^4 viable cells/well) were allowed to invade matrigel for 6 hr at 37 °C, 5% CO2. In all cases, at the end of the assay, cells on the lower filter surface were fixed with ethanol, stained with haematoxylin and 10 random fields/filter were counted at 200× magnification. Each experiment was performed three times in triplicate."}, "HT1080 cells [3]": {"test_system": "HT1080 cells", "assay": "Matrigel invasion kinetics, xCELLigence RTCA, HT1080", "type": "cell-based, human", "protocol": "(§1) This assay was performed using E-well plates and the xCELLigence RTCA technology as described. Bottom wells were coated with 20 µg/well matrigel diluted in serum free medium. Matrigel was allowed to polymerize for 1 hr at 37 °C prior to seeding cells (1 × 10^4 cells/well) suspended in growth medium plus/minus RI peptides. Cells that cross matrigel adhere to the bottom of plates causing impedance changes that are proportional to the number of invading cells, and are expressed as a cell index value. Matrigel invasion was monitored for 20 hr. The experiments were performed three times in quadruplicate."}, "[4]": {"assay": "Stability in bovine serum, read out as inhibition of HT1080 migration (xCELLigence)", "type": "in vitro ADME", "conditions": "pre-incubated at 10^−3 M in bovine serum 18 hr at 37 °C, tested at 10 nM on HT1080 migration 18 hr, quadruplicate", "protocol": "A major limitation of peptides for use as therapeutics is susceptibility to degradation by serum proteases. The stability of RI-3 in bovine and human serum was investigated by comparing inhibitory activities of RI-3 and RI-3 pre-incubated at 10^−3 M with serum for 18 hr at 37 °C on cell migration and invasion. HT1080 cells were allowed to migrate for 18 hr toward DMEM (CTRL), 10% FBS (None), 10% FBS plus 10 nM RI-3 or 10% FBS with 10 nM RI-3 pre-incubated in bovine serum. […] The stability of RI-3 in human serum was investigated in cell invasion experiments performed in Boyden chambers. […]\n(a) HT1080 cells were allowed to migrate in real time for 18 hr toward DMEM (CTRL), or 10% FBS in the absence (None) or the presence of 10 nM RI-3 or 10 nM RI-3 pre-incubated at 10^−3 M in bovine serum for 18 hr at 37 °C. […] The basal value assessed in the absence of FBS (CTRL) was taken as 100% and all values were reported relative to that. Data are the means ± SD three independent experiments, performed in triplicate. *Indicates statistical significance calculated against None, with *P < 0.05, **P < 0.0001. (c) Cell proliferation of HT1080 cells assessed by MTS assay. […] At the indicated times, the absorbance of adherent cells was assessed with a microplate reader. […]"}, "[5]": {"test_system": "osteosarcoma Saos-2 cells", "assay": "Matrigel invasion kinetics, xCELLigence RTCA, Saos-2", "type": "cell-based, human", "conditions": "Saos-2, 10 nM, 10% FBS, 20 hr", "protocol": "as §1"}},
  "note": "[ ]: non-standard residue; d: D form. Aib = CC(C)(N)C(=O)O",
  "data": [
    {"substance": "Ac-[dY][dR][Aib][dR]-NH2 (SMILES CC(=O)N[C@H](Cc1ccc(O)cc1)C(=O)N[C@H](CCCNC(=N)N)C(=O)NC(C)(C)C(=O)N[C@H](CCCNC(=N)N)C(N)=O) [RI-3]", "values": [
      {"measurement": "reduction of the capability of Sarc cells to disrupt endothelial monolayers", "setting": "[1]", "result": 24, "unit": "%"},
      {"measurement": "reduction of FBS-directed cell migration", "setting": "HT1080 cells [2]", "result": 57, "unit": "%"},
      {"measurement": "reduction of matrigel invasion (slope of cell index)", "setting": "HT1080 cells [3]; HT1080, 10 nM, 10% FBS, 20 hr", "result": 64, "unit": "%"},
      {"measurement": "IC50", "setting": "HT1080 cells [3]; increasing concentrations plus 10% FBS, matrigel invasion 20 hr, xCELLigence, read-out: concentration at which an overall 50% reduction of cell invasion was reached", "result": 0.01, "unit": "nM"},
      {"measurement": "cell index curves of migrating cells, peptide vs peptide pre-incubated in bovine serum", "setting": "[4]", "result": "overlapping curves"},
      {"measurement": "reduction of matrigel invasion (slope of cell index)", "setting": "[5]", "result": 24, "unit": "%"}
    ]}
  ]
}
